These results are taken from paper PMC12449371, “The role of unsaturated fatty acids in modulating human butyrylcholinesterase activity: insights from kinetics and molecular docking” (Naunyn-Schmiedeberg's Archives of Pharmacology, 2025).

“Also recorded” adds a separate entry of the source. Read-outs that look alike come from different tables or passages of the source.

Assay [1] has as its target T1, human BChE (Homo sapiens, UniProt P06276).
T1 construct: purification process was performed using 0 Rh (−) human blood serum from the Hacettepe Hospital blood bank; from tissue; host or cells: human blood serum (0 Rh(−), Hacettepe Hospital blood bank)
The experiment in a line: IC50 determination, modified 96-microtiter plate Ellman assay. The format is biochemical. As to conditions: purified human serum BChE, 0.5 mM BTCh, 50 mM MOPS pH 7.4, 37 °C, Table 2 head prints no unit, µM. The procedure: (§1) The butyrylcholinesterase purification process was performed using 0 Rh (−) human blood serum from the Hacettepe Hospital blood bank, as described in a previous study (Gok et al. [2023]). BChE was subjected to acid dialysis followed by DEAE-Trisacryl M ion-exchange chromatography under pH 5.5 conditions. The pooled active fractions from Trisacryl M chromatography were dialyzed to adjust neutral buffer pH 7.4 and transferred to procainamide-Sepharose 4B chromatography. The BChE enzyme was bound to the procainamide column, which was then washed with 25 mM phosphate buffer at pH 7.4. The BChE was eluted from the column with a linear gradient of 0.2–0.8 M NaCl in 25 mM potassium phosphate buffer pH 7.4, followed by dialysis. […] Silver staining (Blum et al. [1987]) and the Karnovsky-Roots technique (Karnovsky and Roots [1964]) were used to visualize gels that had been labeled for activity and protein, […].
The IC₅₀ was determined using the modified 96-microtiter plate Ellman assay (George and Abernethy [1983]), using a total volume of 200 µL. […] The unsaturated fatty acids used for the test were dissolved in DMSO and then the working solutions were sonicated in a reaction buffer for 30 s, followed by a further 30 s. The fatty acid solutions with different final concentrations of 10–7500 µM were added to the wells. Subsequently, 50 mM MOPS buffer (pH 7.4) and 0.7 µg of purified BChE enzyme were added. The plate was incubated in the absence of light with a plate shaker at 37 °C for 10 min. Measurements were initiated by adding a final concentration of 0.25 mM DTNB (ε412, DTNB = 14.2 mM^−1 cm^−1) and 0.5 mM butyrylthiocholine (BTCh). The mixture of 1% DMSO without the BTCh substrate was used as the reagent blank. The absorbance readings were recorded at a wavelength of 412 nm for a period of 10 min using the Spectramax M2 microplate reader (Molecular Devices, USA). The activity without fatty acids was set as 100% control, while all activities with fatty acids were compared to this control. IC₅₀ values were determined using GraphPad Prism 8.4 software by plotting the percentage of BChE activity against the fatty acid concentration. Each test was performed at least four times and average values were reported as final results.

Assay [2] deals with T1, human BChE. Description: Inhibition kinetics, Ellman method with varying BTCh substrate. The class given is biochemical. The note with it: for Ki: BTCh as substrate (1.0-0.05 mM), three fatty acid concentrations; for Inhibition type: Lineweaver-Burk analysis, BTCh as substrate. On the procedure:
as §1
Evaluation of BChE activity was performed according to the Ellman method (George and Abernethy [1983]) with a minor modification in a 96-well microtiter plate assay. The fatty acids oleic acid, linoleic acid, α-LA, and arachidonic acid used in the assay were dissolved in DMSO. The working solutions were then sonicated in a reaction buffer for 30 + 30 s. Based on previous experimental results, three concentrations of oleic acid, linoleic acid, α-LA, and arachidonic acid were chosen: 200–750 µM, 500–2500 µM, 50–250 µM, and 100–300 µM, respectively. This was to clarify the inhibitory mechanisms for the fatty acids. In the presence of these fatty acids, BChE activity was measured at eight progressively lower concentrations (1.0–0.05 mM) of the BTCh substrate. The experimental procedure involved incubation of a solution of the fatty acid with BChE enzyme (0.7 µg), 50 mM MOPS buffer pH 7.4, and 0.25 mM DTNB in the absence of light at 37 °C for 5 min. The reaction was initiated and monitored for 10 min at 412 nm in kinetic mode after addition of the substrate. The identical solution was run with buffer instead of fatty acids as a control and all assays were performed in triplicate. Enzyme activity was expressed in milliunits (mU), where 1 mU corresponds to the hydrolysis of 1 nmol of BTCh per minute at room temperature.
Enzyme kinetics data was analyzed and graphs were plotted using GraphPad Prism 8.42. The kinetic parameters and the enzyme-substrate relationship were fitted to the Michaelis-Menten model using nonlinear regression.

The next assay concerns the target AChE. The arrangement: method as in Akay et al. [2023]. As to conditions: ref Akay et al. [2023]; cited from earlier work.

T1 sequence (P06276 29-602): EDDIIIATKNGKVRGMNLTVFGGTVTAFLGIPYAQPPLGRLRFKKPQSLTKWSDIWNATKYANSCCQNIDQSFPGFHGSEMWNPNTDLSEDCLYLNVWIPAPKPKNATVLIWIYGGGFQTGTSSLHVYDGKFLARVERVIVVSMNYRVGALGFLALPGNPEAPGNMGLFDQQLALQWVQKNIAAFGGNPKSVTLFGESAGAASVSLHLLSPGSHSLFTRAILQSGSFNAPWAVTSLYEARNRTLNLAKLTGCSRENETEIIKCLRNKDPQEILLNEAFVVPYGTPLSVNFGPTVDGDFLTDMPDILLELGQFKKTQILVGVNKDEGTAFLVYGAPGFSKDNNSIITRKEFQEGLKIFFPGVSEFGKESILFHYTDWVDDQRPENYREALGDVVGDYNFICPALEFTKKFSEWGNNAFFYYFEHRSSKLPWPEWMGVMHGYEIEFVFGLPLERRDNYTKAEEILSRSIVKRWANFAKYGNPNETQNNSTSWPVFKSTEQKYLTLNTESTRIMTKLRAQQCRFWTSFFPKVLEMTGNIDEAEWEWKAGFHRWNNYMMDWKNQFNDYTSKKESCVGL

`CC/C=C\C/C=C\C/C=C\CCCCCCCC(=O)O` [α-Linolenic acid, alpha-linolenic acid]: at human BChE [1] (read-out: IC50), the IC50 stood at 5810 µM. Further, the Ki on human BChE [2] (read-out: Ki) is 667 µM. Besides, the values for the Inhibition type entry on human BChE [2] (listed as α-LA) and on human BChE [2] (listed as α-Linolenic acid (18:3)) were “noncompetitively; also recorded: noncompetitive inhibition type” and “Noncompetitive”, respectively. Further, the “noncompetitive inhibitory constants (Ki) on AChE, rank in words” value at AChE is “lowest Ki”.
As for `CCCCCCCCCCCCCCCCCCCC(=O)O` [eicosanoic acid], in the assay with AChE, the “AChE inhibition in words” value was “strongly inhibits”.
`CCCCCCCC/C=C\CCCCCCCC(=O)O` [Oleic acid, oleic acid]: the IC50 at human BChE [1] (read-out: IC50) came out at 2370 µM. Besides, the Ki entry at human BChE [2] is “lowest Ki value”; at human BChE [2] (read-out: Ki), 321 µM. The Inhibition type result was “noncompetitively” on human BChE [2] and “Noncompetitive” on human BChE [2] (listed as Oleic acid (18:1)).
On to `CCCCC/C=C\C/C=C\C/C=C\C/C=C\CCCC(=O)O` [Arachidonic acid, arachidonic acid], for which the results for the IC50 result at human BChE [1] and at human BChE [1] (read-out: IC50) were “strongest inhibitory activity” and 611 µM, respectively. In addition, the Ki on human BChE [2] (read-out: Ki) stood at 465 µM. For the same molecule, the Inhibition type entry on human BChE [2] (listed as AA) is “uncompetitive type inhibition”; on human BChE [2] (listed as Arachidonic acid (20:4)), “Uncompetitive”. Moreover, the “inhibitory effect on AChE (IC50), rank in words” value in the assay with AChE is reported as “strongest inhibitory effect”.
Take `CCCCC/C=C\C/C=C\CCCCCCCC(=O)O` [Linoleic acid, linoleic acid]: the IC50 on human BChE [1] (read-out: IC50) stood at 5910 µM. The Ki at human BChE [2] (read-out: Ki) is 1400 µM. For the same molecule, the results for the Inhibition type entry at human BChE [2], at human BChE [2] (listed as LA) and at human BChE [2] (listed as Linoleic acid (18:2)) were “Noncompetitive inhibition”, “noncompetitive inhibition type” and “Noncompetitive”, respectively.

One may read the IC50 as the midpoint of a concentration-inhibition curve. The term Ki denotes the dissociation constant of the complex between target and ligand, obtained from inhibition or displacement.
